Measured values taken from paper PMC9953660, “Using ΔK280 TauRD Folding Reporter Cells to Screen TRKB Agonists as Alzheimer’s Disease Treatment Strategy” (Biomolecules, 2023).

Assays:
caspase-6 = test: Caspase-6 activity assay in cell lysates; type: cell-based, human; conditions: uninduced = 100%, induced untreated 110.5%
Procedure: After being compounds-treated and RA-differentiated, cells were collected for caspase-1/6 and AChE activity measurements. Cells were lysed in lysis buffer with repeated freeze/thaw cycles and protein concentration in cell lysates quantitated. Types of substrates applied to detect each caspase’s activity were: YVAD-AFC for caspase-1 and VEID-AFC for caspase-6 (BioVision, Milpitas, CA, USA). The reaction mixtures were incubated for 1.5 h at 37 °C according to the manufacturer’s instructions. The fluorescence intensities with excitation/emission wavelengths at 400/505 nm were recorded by a FLx800 microplate fluorescence reader (BioTek Instruments). An AChE activity assay was performed according to the manufacturer’s instructions (Sigma-Aldrich), as described in the Ref. [28]. The mixture was incubated for 2–10 min at room temperature, and absorbance at 412 nm wavelength was measured by Multiskan™ GO Microplate Spectrophotometer (Thermo Scientific).

[1] = target: T1, TRKB extracellular domain (TRKB-ECD) (Homo sapiens, UniProt Q16620); test: Tryptophan fluorescence quenching assay; conditions: Pichia pastoris-expressed TRKB-ECD, 0–1000 nM, excitation 295 nm, emission 330 nm, room temperature; read-out: KD (TRKB-ECD binding affinity)
T1 construct: TRKB-ECD (marked in red, C^32-E^429, XP_016870240); His (C); made in house; host or cells: Pichia pastoris
T1 sequence (Q16620 32-429): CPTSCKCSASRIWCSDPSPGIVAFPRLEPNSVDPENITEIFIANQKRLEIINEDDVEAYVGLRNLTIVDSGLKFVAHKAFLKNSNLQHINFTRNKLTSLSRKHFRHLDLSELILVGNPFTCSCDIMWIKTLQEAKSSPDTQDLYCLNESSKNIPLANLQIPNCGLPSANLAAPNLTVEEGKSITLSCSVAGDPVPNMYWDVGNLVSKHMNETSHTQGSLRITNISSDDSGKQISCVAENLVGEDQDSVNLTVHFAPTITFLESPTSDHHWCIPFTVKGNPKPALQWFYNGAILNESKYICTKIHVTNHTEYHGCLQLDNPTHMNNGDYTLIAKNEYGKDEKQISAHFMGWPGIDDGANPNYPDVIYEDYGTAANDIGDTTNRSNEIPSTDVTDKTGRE
Procedure: The interaction between the N-terminal extracellular domain of TRKB (TRKB-ECD) and 7,8-DHF (as positive control; [35]), ZN-015, VB-030 or VB-037 was evaluated with tryptophan fluorescence titration. TRKB-ECD-His protein was expressed in the Pichia expression system (Invitrogen) and purified as stated. Intrinsic tryptophan fluorescence spectra with titration of a different concentration of compounds (0–1000 nM) were recorded by fluorescence spectrophotometer F-7000 (Hitachi, Tokyo, Japan), with excitation wavelength 295 nm and emission wavelength in the range of 300–400 nm. The calculation of dissociation constant (KD) between the 7,8-DHF or ZN/VB compound and TRKB was described in a previous report.

Molecule `O=C(/C=C/c1ccccc1O)c1c(O)c2ccccc2oc1=O` [ZN-015, (E)-4-hydroxy-3-(3-(2-hydroxyphenyl)acryloyl)-2H-chromen-2-one] has a caspase-6 activity (caspase-6) of 99.8% and a Kd [1] of 12.2 ± 9.4 nM.
